Test results as given in patent publication US20210093531A1, “DERIVATIVES OF MENTHOL AND USES THEREOF” (Board of Trustees of Northern Illinois University, priority 2019, published 2021).
“Also recorded” adds a separate entry of the source. Marks after values point to notes of the source that are not given here.

What was measured:
Type in all cases: in vivo
[1] = organoleptic evaluation in ethanol, propylene glycol and water; conditions: for organoleptic properties, EtOH / organoleptic properties, PG / organoleptic properties (entry names no solvent): 100 ppm; for organoleptic properties, EtOH: ethanol cut in aqueous solution; for organoleptic properties, PG: propylene glycol cut in aqueous solution; for organoleptic properties (entry names no solvent): entry without solvent suffix
Procedure: Stock solutions for each solution was prepared as described below to afinal concentration of 100 ppm.
c. Mix well to achieve final concentration of 100 ppm.
a. Prepare a stock solution of 2.5% solution in PG by adding 25 mg of menthol analog in 1 gram of PG (mix well).
Organoleptic properties by compound are listed below for menthol derivatives in ethanol, propylene glycol, and water: […]

[2] = system: trained panelists; experiment: time-intensity analysis of cooling, lozenge application; conditions: 4-minute window
Procedure: In order to evaluate the potential use of menthol glycinates as […] different food, beverage and oral hygiene products, select compounds were incorporated in different application systems. A beverage model system, a lozenge and a mouthwash application were created, and time-intensity analysis was performed using trained discrimination analysis panelists. Time-Intensity (TI) is a temporal sensory method. During TI evaluations, assessors are asked to score the intensity of perception of a single attribute over consumption of the product. Compared to single point measurements, TI analysis can characterize the onset, decline and rates thereof, of particular sensory characteristics. This analysis may reveal rich information regarding the intensity of an attribute over the time domain and identify temporal perceptual differences among samples that can greatly impact the overall profile of a product. For each sample evaluation, a temporal curve is generated, based on duplication. The temporal curves for each panelist are combined to generate a combined curve for each product that is evaluated. The following distinct parameters were calculated: Imax: peak intensity or maximum observed intensity on the whole curve; […]: time point where the reaction to the stimulus is first perceived on the curve; Tmax: time position of the peak intensity on the curve; Tplateau: protraction of maximum intensity or duration of maximum intensity; Text: time point of extinction of the perception of the stimulus, defined as the position in time after the peak intensity where the measured intensity disappears (or the end of evaluation window); Iext: intensity at time of extinction or end of evaluation; R increase: slope or rate of intensity increase between […] and Tmax; R decrease: slope or rate of intensity decrease between Tmax and Text; and Area: the total area under the time-intensity curve. The formula detailed in Table 4 was employed to create the lozenge application to evaluate menthol glycinates of interest using time-intensity analysis. [table] For time-intensity (T-I) evaluation of the cooling intensity of lozenges, 9 panelists were recruited (3 male, 6 female). Panelists were trained in basic taste descriptive analysis. A sweetness reference series (intensity range 2-12) was provided to be used as cross-modality reference to aid in scaling the intensity of the cool attribute present in the lozenge samples. Panelists evaluated samples in duplicates and all samples were presented blinded and in a randomized order using a 3-digit code. Panelists were instructed to provide cooling intensity at predetermined time points throughout an evaluation window of 4 minutes. […] Evaluations were performed with at least 4 hours between them to ensure no carry over. Data analysis for generation of T-I statistics and ANOVA analysis to determine significant difference among samples was performed using R STUDIO.

[3] = system: trained panelists; experiment: time-intensity analysis of cooling, mouthwash application; conditions: for Iext (cooling intensity at end of evaluation): 15 minutes after expectoration
Procedure: In order to evaluate the potential use of menthol glycinates as […] different food, beverage and oral hygiene products, select compounds were incorporated in different application systems. A beverage model system, a lozenge and a mouthwash application were created, and time-intensity analysis was performed using trained discrimination analysis panelists. Time-Intensity (TI) is a temporal sensory method. During TI evaluations, assessors are asked to score the intensity of perception of a single attribute over consumption of the product. Compared to single point measurements, TI analysis can characterize the onset, decline and rates thereof, of particular sensory characteristics. This analysis may reveal rich information regarding the intensity of an attribute over the time domain and identify temporal perceptual differences among samples that can greatly impact the overall profile of a product. For each sample evaluation, a temporal curve is generated, based on duplication. The temporal curves for each panelist are combined to generate a combined curve for each product that is evaluated. The following distinct parameters were calculated: Imax: peak intensity or maximum observed intensity on the whole curve; […]: time point where the reaction to the stimulus is first perceived on the curve; Tmax: time position of the peak intensity on the curve; Tplateau: protraction of maximum intensity or duration of maximum intensity; Text: time point of extinction of the perception of the stimulus, defined as the position in time after the peak intensity where the measured intensity disappears (or the end of evaluation window); Iext: intensity at time of extinction or end of evaluation; R increase: slope or rate of intensity increase between […] and Tmax; R decrease: slope or rate of intensity decrease between Tmax and Text; and Area: the total area under the time-intensity curve. The formula shown in Table 8 was employed to create a mouthwash product to evaluate […] of interest using time-Intensity analysis. [table] The following test compounds were evaluated: menthol, XI-I-60, RK-2-10, XI-I-65, DK-1-50, and XI-2-73. For time-intensity (T-I) evaluation of the cooling attributes of mouthwash products, 8 panelists were recruited (2 male, 6 female). Panelists were trained in basic taste descriptive analysis. A sweetness reference series (intensity range 2-12) was provided to be used as cross-modality reference to aid in scaling the intensity of the cooling attribute present in the mouthwash samples. Panelists evaluated samples in duplicates and all sample were presented blinded and in a randomized order using a 3-digit code. Panelist evaluated 15 ml of mouthwash at a time and were instructed to rinse for 30 seconds and expectorate. Panelists were instructed to provide cooling intensities before and after expectoration. For the time before expectoration, evaluation started upon introducing the sample and every 10 seconds thereafter. After expectoration, the evaluation continued for 15 minutes and panelists provided cooling intensity ratings at predetermined times. Due to the unique nature of this product and the interest in prolonging the cooling attribute long after consumption, an additional parameter led was evaluated among samples via ANOVA. This parameter is the cooling intensity at time of extinction or in our case the end of evaluation. Data analysis for generation of T-I statistics and ANOVA analysis to determine significant difference among samples was performed using R STUDIO.

[4] = after expectoration for 15 minutes (Table 9b)
[5] = rinse phase 30 seconds (Table 9a)

CC1CCC(C(C)C)C(O)C1 (centres unmarked) [Menthol, menthol]
organoleptic properties of menthol ([1]; simple solutions of PG and water or ethanol): very strong, instantaneous cooling effect | Imax (peak cooling intensity) ([2]; 0.05 g test compound per 100 g, 2 g sample, 9 panelists): 11.53^bc^ | AUC (total area under time-intensity curve) [2]: 2064.83^b | RDec (rate of intensity decrease) [2]: 0.056^b | RInc (rate of intensity increase) [2]: 0.053^b | Tmax (time of peak intensity) [2]: 180.00^b | Tstart (time cooling first perceived) [2]: 5.00^b | Iext (cooling intensity at end of evaluation) [3]: 1^a | AUC [3, 4]: 3608.38^a | I max [3, 4]: 12.01^a^ | Rdec [3, 4]: −0.03^a | Rinc [3, 4]: 0.00^a | Tmax [3, 4]: 33.53^a | Tstart [3, 4]: 30.00^a | AUC [3, 5]: 168.97^a | Imax [3, 5]: 12.56^a | Rdec [3, 5]: −0.09^a | Rinc [3, 5]: 0.21^a | Tstart [3, 5]: 10.88^a

CCCCN(CCCC)CC(=O)O[C@@H]1C[C@H](C)CC[C@H]1C(C)C [Product 10, (1R,2S,5R)-2-Isopropyl-5-methylcyclohexyl 2-(dibutylamino)acetate]
organoleptic properties, EtOH ([1]; listed as RK-2-10): delay onset mild cooling (post 20 seconds) with a; also recorded: slight tingling and sweetness that extended past 1 | organoleptic properties, PG ([1]; listed as RK-2-10): Very low intensity of cooling that slowly builds with; also recorded: a skin tingling effect. Could be a good candidate | organoleptic properties (entry names no solvent) ([1]; listed as RK-2-10): exhibited a delayed onset cooling and an upfront; also recorded: bitterness from PG | Tmax (time of peak intensity) [2]: 210.00^a | Iext (cooling intensity at end of evaluation) [3]: 0.9^a | AUC [3, 4]: 4105.91^ac | I max [3, 4]: 12.65^ab | Rdec [3, 4]: −0.01^b | Tmax [3, 4]: 30.00^a | Tstart [3, 4]: 30.00^a | AUC [3, 5]: 182.05^a | Imax [3, 5]: 12.82^a | Rinc [3, 5]: 0.18^b | Tstart [3, 5]: 10.91^a

CC(C)[C@@H]1CC[C@@H](C)C[C@H]1OC(=O)CN(C)C(C)C [Product 16, (1R,2S,5R)-2-Isopropyl-5-methylcyclohexyl 2-(isopropyl(methyl)amino)acetate]
organoleptic properties, EtOH ([1]; listed as XI-1-50): initial alcohol cooling burn with late onset cooling; also recorded: at 20 seconds and deep cooling at 60 seconds | organoleptic properties, PG ([1]; listed as XI-1-50): initial bitterness from PG cooling at 30 seconds | organoleptic properties (entry names no solvent) ([1]; listed as XI-1-50): slight delay in cooling after 20 seconds with some; also recorded: upfront bitterness coming from PG. Very intense; also recorded: building cooling post 50 seconds | Tmax (time of peak intensity) [2]: 204.71^a | Tstart (time cooling first perceived) [2]: 7.85^ac | Iext (cooling intensity at end of evaluation) [3]: 2.33^b | AUC [3, 4]: 5565.00^b | I max [3, 4]: 13.37^ab | Rdec [3, 4]: −0.01^b | Rinc [3, 4]: 0.03^b | Tmax [3, 4]: 32.73^a | Tstart [3, 4]: 30.00^a | AUC [3, 5]: 180.91^a | Imax [3, 5]: 13.09^a | Rdec [3, 5]: 0.00^b | Rinc [3, 5]: 0.23^a | Tstart [3, 5]: 10.00^a

(1R,2S,5R)-2-Isopropyl-5-methylcyclohexyl 2-(isopropylamino)acetate [Product 7]
organoleptic properties, EtOH ([1]; listed as XI-1-60): cooling started at 20 seconds with slight alcohol; also recorded: burn, very intense cooling profile from 20 seconds | organoleptic properties, PG ([1]; listed as XI-1-60): Up front cooling at 10 seconds with stronger cooling; also recorded: at 20 seconds, much more intense cooling than XI- | RInc (rate of intensity increase) [2]: 0.041^ab | Tmax (time of peak intensity) [2]: 210.00^a | Iext (cooling intensity at end of evaluation) [3]: 1.23^a | AUC [3, 4]: 4344.50^ac | I max [3, 4]: 12.33^ab | Rdec [3, 4]: −0.01^b | Rinc [3, 4]: 0.00^a | Tmax [3, 4]: 36.00^a | Tstart [3, 4]: 30.00^a | AUC [3, 5]: 170.50^a | Imax [3, 5]: 12.43^a | Rinc [3, 5]: 0.20^a | Tstart [3, 5]: 11.00^a
